Laboratory results published in patent US20260306640A1, “TECHNOLOGIES TARGETING CELL STATES” (Auron Therapeutics, Inc., priority 2023, published 2026).

Key:
KAT2A = KAT2A (Homo sapiens, UniProt Q92830); assay: KAT2A degradation, Western Blot (Jess), NCI-H1048 cells; format: cell-based; set-up: degrader, Western blot (Jess); settings: NCI-H1048 cells, KAT2A, 24 h, Western Blot, vs DMSO; read-out: KAT2A NCI-H1048 DC50
Procedure, shortened: (§1)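 NCI-H1048 cells grown in HITES medium with 5% FBS were treated with compounds for 24 h at 37° C. Lysates were run by capillary Western (Jess) with KAT2A or KAT2B antibodies and chemiluminescent detection. DC50 derived from percent protein reduction versus DMSO control.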

KAT2B = KAT2B (Homo sapiens, UniProt Q92831); assay: KAT2B degradation, Western Blot (Jess), NCI-H1048 cells; format: cell-based; set-up: degrader, Western blot (Jess); settings: NCI-H1048 cells, KAT2B, 24 h, Western Blot, vs DMSO; read-out: KAT2B NCI-H1048 DC50
Chain of KAT2B (Q92831 whole entry): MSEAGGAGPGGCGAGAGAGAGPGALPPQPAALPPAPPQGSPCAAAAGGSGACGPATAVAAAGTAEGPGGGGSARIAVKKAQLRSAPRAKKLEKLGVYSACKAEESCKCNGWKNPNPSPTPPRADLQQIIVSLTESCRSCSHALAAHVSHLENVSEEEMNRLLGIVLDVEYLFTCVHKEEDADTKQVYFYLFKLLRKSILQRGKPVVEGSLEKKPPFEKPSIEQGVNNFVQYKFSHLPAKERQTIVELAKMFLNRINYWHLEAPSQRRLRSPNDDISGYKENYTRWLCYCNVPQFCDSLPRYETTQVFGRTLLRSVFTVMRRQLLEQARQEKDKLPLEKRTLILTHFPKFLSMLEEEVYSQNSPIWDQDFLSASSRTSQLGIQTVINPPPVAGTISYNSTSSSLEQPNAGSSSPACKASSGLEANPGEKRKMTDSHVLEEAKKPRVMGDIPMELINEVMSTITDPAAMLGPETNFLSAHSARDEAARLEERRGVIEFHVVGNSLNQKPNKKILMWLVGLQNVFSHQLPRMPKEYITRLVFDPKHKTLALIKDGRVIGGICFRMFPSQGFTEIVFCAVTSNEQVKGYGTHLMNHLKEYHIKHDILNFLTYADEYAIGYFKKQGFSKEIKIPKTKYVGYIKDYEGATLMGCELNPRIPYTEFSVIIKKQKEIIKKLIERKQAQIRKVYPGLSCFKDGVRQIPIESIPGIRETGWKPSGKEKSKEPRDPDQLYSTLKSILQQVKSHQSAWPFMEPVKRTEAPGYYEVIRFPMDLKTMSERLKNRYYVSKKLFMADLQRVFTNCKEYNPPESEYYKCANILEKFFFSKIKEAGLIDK
Procedure, shortened: as §1

Chain of KAT2A (Q92830 whole entry): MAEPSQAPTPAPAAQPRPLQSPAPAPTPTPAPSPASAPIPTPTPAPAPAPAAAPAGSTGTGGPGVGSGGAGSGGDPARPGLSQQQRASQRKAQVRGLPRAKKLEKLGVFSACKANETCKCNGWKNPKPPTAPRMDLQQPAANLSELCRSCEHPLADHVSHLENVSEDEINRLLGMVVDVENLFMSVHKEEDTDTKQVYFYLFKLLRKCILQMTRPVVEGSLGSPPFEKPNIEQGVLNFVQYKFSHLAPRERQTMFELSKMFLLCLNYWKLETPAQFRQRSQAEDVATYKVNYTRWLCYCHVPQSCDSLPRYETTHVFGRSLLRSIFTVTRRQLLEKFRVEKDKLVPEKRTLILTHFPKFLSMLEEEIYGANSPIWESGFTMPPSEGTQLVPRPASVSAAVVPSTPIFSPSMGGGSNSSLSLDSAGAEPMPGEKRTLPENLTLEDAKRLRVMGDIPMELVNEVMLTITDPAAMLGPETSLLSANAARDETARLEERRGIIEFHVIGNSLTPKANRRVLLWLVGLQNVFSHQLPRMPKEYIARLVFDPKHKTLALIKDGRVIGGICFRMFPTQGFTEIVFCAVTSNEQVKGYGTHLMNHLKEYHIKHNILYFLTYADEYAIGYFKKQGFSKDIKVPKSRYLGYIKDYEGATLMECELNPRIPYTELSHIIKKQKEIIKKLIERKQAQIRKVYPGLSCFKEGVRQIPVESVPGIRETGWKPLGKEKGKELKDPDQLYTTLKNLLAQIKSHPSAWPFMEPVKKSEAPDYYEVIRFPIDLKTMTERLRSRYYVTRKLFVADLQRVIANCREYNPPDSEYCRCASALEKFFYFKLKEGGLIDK

| Structure (SMILES) | DC50 (KAT2A) | DC50 (KAT2B) |
| --- | --- | --- |
| CN1C[C@H](Nc2cnn(C)c(=O)c2Cl)C[C@H](c2ccc(C(=O)N3CCC4(CC3)CCN(c3cc(C(F)(F)F)c(C5CCC(=O)NC5=O)cn3)CC4)cc2)C1 (some centres unmarked) [Compound 270] | > 30 nM | > 30 nM |
| CN1C[C@H](Nc2cnn(C)c(=O)c2Br)C[C@H](c2ccc(C(=O)N3CCC4(CC3)CCN(c3ccc(C5CCC(=O)NC5=O)cc3OC(F)(F)F)CC4)cc2)C1 (some centres unmarked) [Compound 259] | < 1 nM | 1 to 30 nM |
| CN1C[C@H](Nc2cnn(C)c(=O)c2Br)C[C@H](c2ccc(CN3CC(c4ccc5c(c4)C(=O)N(C4CCC(=O)NC4=O)C5=O)C3)cc2)C1 (some centres unmarked) [Compound 202] | 1 to 30 nM | > 30 nM |
| Cc1cc(C2CCC(=O)NC2=O)c(F)cc1N1CCC2(CCN(C(=O)c3ccc([C@H]4C[C@@H](Nc5cnn(C)c(=O)c5Br)CN(C)C4)cc3)CC2)CC1 (some centres unmarked) [Compound 275] | 1 to 30 nM | 1 to 30 nM |
| Cc1c(C2CCC(=O)NC2=O)ccc(N2CCC3(CCN(C(=O)c4ccc([C@H]5C[C@@H](Nc6cnn(C)c(=O)c6C)CN(C)C5)cc4)CC3)CC2)c1F (some centres unmarked) [Compound 256] | < 1 nM | 1 to 30 nM |
| COc1cc(C2CCC(=O)NC2=O)ccc1N1CCC2(CCN(C(=O)c3ccc([C@H]4C[C@@H](Nc5cnn(C)c(=O)c5C)CN(C)C4)cc3)CC2)CC1 (some centres unmarked) [Compound 257] | < 1 nM | 1 to 30 nM |
| Cc1cc(N2CCC3(CCN(C(=O)c4ccc([C@H]5C[C@@H](Nc6cnn(C)c(=O)c6Br)CN(C)C5)cc4)CC3)CC2)ccc1C1CCC(=O)NC1=O (some centres unmarked) [Compound 265] | < 1 nM | < 1 nM |
| CN1C[C@H](Nc2cnn(C)c(=O)c2Cl)C[C@H](c2ccc(C(=O)N3CCC4(CC3)CCN(c3cc(F)c(C5CCC(=O)NC5=O)cc3F)CC4)cc2)C1 (some centres unmarked) [Compound 276] | < 1 nM | < 1 nM |
| COc1cc(N2CCC3(CCN(C(=O)c4ccc([C@H]5C[C@@H](Nc6cnn(C)c(=O)c6Cl)CN(C)C5)cc4)CC3)CC2)c(C)cc1C1CCC(=O)NC1=O (some centres unmarked) [Compound 285] | < 1 nM | > 30 nM |
| CN1C[C@H](Nc2cnn(C)c(=O)c2Cl)C[C@H](c2ccc(C(=O)N3CCC4(CC3)CCN(c3ncc(C5CCC(=O)NC5=O)cn3)CC4)cc2)C1 (some centres unmarked) [Compound 264] | < 1 nM | < 1 nM |
| Cc1cc(N2CCC3(CCN(C(=O)c4ccc([C@H]5C[C@@H](Nc6cnn(C)c(=O)c6Cl)CN(C)C5)cc4)CC3)CC2)ncc1C1CCC(=O)NC1=O (some centres unmarked) [Compound 266] | < 1 nM | < 1 nM |
| CN1C[C@H](Nc2cnn(C)c(=O)c2Cl)C[C@H](c2ccc(C(=O)N3CCC4(CC3)CCN(c3ccc5nnn(C6CCC(=O)NC6=O)c5c3)CC4)cc2)C1 (some centres unmarked) [Compound 214] | 1 to 30 nM | > 30 nM |
| CN1C[C@H](Nc2cnn(C)c(=O)c2Br)C[C@H](c2ccc(C(=O)N3CC(c4ccc5c(c4)C(=O)N(C4CCC(=O)NC4=O)C5=O)C3)cc2)C1 (some centres unmarked) [Compound 197] | 1 to 30 nM | > 30 nM |
| Cc1c(N2CCC3(CCN(C(=O)c4ccc([C@H]5C[C@@H](Nc6cnn(C)c(=O)c6Br)CN(C)C5)cc4)CC3)CC2)ccc(C2CCC(=O)NC2=O)c1F (some centres unmarked) [Compound 235] | < 1 nM | < 1 nM |
| COc1cc(N2CCC3(CCN(C(=O)c4ccc([C@H]5C[C@@H](Nc6cnn(C)c(=O)c6Br)CN(C)C5)cc4)CC3)CC2)c(F)cc1C1CCC(=O)NC1=O (some centres unmarked) [Compound 278] | 1 to 30 nM | > 30 nM |
| CN1C[C@H](Nc2cnn(C)c(=O)c2Br)C[C@H](c2ccc(C(=O)N3CCC4(CC3)CCN(c3ncc(C5CCC(=O)NC5=O)cn3)CC4)cc2)C1 (some centres unmarked) [Compound 271] | < 1 nM | < 1 nM |
| Cc1c(N[C@@H]2C[C@H](c3ccc(C(=O)N4CCC5(CC4)CCN(c4ccc(C6CCC(=O)NC6=O)cc4C(F)(F)F)CC5)cc3)CN(C)C2)cnn(C)c1=O (some centres unmarked) [Compound 226] | < 1 nM | 1 to 30 nM |
| CN1C[C@H](Nc2cnn(C)c(=O)c2Br)C[C@H](c2ccc(CN3CC(c4cccc(C5CCC(=O)NC5=O)c4)C3)cc2)C1 (some centres unmarked) [Compound 190] | 1 to 30 nM | > 30 nM |
| CN1C[C@H](Nc2cnn(C)c(=O)c2Cl)C[C@H](c2ccc(C(=O)N3CCC4(CC3)CCN(c3ccc(C5CCC(=O)NC5=O)c(OC(F)(F)F)c3)CC4)cc2)C1 (some centres unmarked) [Compound 277] | > 30 nM | > 30 nM |
| Cc1c(N[C@@H]2C[C@H](c3ccc(C(=O)N4CCC5(CC4)CCN(c4ccc(C6CCC(=O)NC6=O)nc4)CC5)cc3)CN(C)C2)cnn(C)c1=O (some centres unmarked) [Compound 241] | < 1 nM | 1 to 30 nM |
| Cc1c(N2CCC3(CCN(C(=O)c4ccc([C@H]5C[C@@H](Nc6cnn(C)c(=O)c6C)CN(C)C5)cc4)CC3)CC2)ccc(C2CCC(=O)NC2=O)c1F (some centres unmarked) [Compound 236] | < 1 nM | 1 to 30 nM |
| Cc1cc(N2CCC3(CCN(C(=O)c4ccc([C@H]5C[C@@H](Nc6c(F)nn(C)c(=O)c6Br)CN(C)C5)cc4)CC3)CC2)ccc1C1CCC(=O)NC1=O (some centres unmarked) [Compound 213] | < 1 nM | 1 to 30 nM |

More lines, now with the values ahead:

| DC50 (KAT2A) | DC50 (KAT2B) | Structure (SMILES) |
| --- | --- | --- |
| < 1 nM | > 30 nM | CN1C[C@H](Nc2cnn(C)c(=O)c2Cl)C[C@H](c2ccc(C(=O)N3CC(C#Cc4ccc(C5CCC(=O)NC5=O)cc4)C3)cc2)C1 (some centres unmarked) [Compound 336] |
| < 1 nM | 1 to 30 nM | CN1C[C@H](Nc2cnn(C)c(=O)c2Cl)C[C@H](c2ccc(C(=O)N3CCC(Cc4ccc(N5CCC(=O)NC5=O)c(F)c4)CC3)cc2)C1 [Compound 327] |
| > 30 nM | > 30 nM | CN1C[C@H](Nc2cnn(C)c(=O)c2Br)C[C@H](c2ccc(CN3CCN(c4cc(C5CCC(=O)NC5=O)c(F)cc4F)CC3)cc2)C1 (some centres unmarked) [Compound 358] |
| < 1 nM | < 1 nM | CN1C[C@H](Nc2cnn(C)c(=O)c2Br)C[C@H](c2ccc(C(=O)N3CCC4(CC3)CCN(c3ccc5c(C6CCC(=O)NC6=O)nccc5c3)CC4)cc2)C1 (some centres unmarked) [Compound 294] |
| 1 to 30 nM | > 30 nM | CN1C[C@H](Nc2cnn(C)c(=O)c2Br)C[C@H](c2ccc(CN3CCN(c4ccnc(C5CCC(=O)NC5=O)c4)CC3)cc2)C1 (some centres unmarked) [Compound 350] |
| < 1 nM | < 1 nM | Cc1cc(N2CCC3(CCN(C(=O)c4ccc([C@H]5C[C@@H](Nc6cnn(C)c(=O)c6Cl)CN(C)C5)cc4)CC3)CC2)ccc1OC1CCC(=O)NC1=O (some centres unmarked) [Compound 365] |
| < 1 nM | > 30 nM | Cc1cc(N2CCN(C3CCN(C(=O)c4ccc([C@H]5C[C@@H](Nc6cnn(C)c(=O)c6Br)CN(C)C5)cc4)CC3)CC2)ccc1C1CCC(=O)NC1=O (some centres unmarked) [Compound 312] |
| < 1 nM | < 1 nM | CN1C[C@H](Nc2cnn(C)c(=O)c2Br)C[C@H](c2ccc(CN3CCC(c4ccc5c(C6CCC(=O)NC6=O)cncc5c4)C(F)(F)C3)cc2)C1 (some centres unmarked) [Compound 388] |
| < 1 nM | 1 to 30 nM | Cc1c(N[C@@H]2C[C@H](c3ccc(CN4CCN(c5ccc(F)c(C6CCC(=O)NC6=O)c5)CC4)cc3)CN(C)C2)cnn(C)c1=O (some centres unmarked) [Compound 342] |
| < 1 nM | 1 to 30 nM | CN1C[C@H](Nc2cnn(C)c(=O)c2Br)C[C@H](c2ccc(C(=O)N3CCC4(CC3)CCN(c3ccc(NC5CCC(=O)NC5=O)c(F)c3)CC4)cc2)C1 (some centres unmarked) [Compound 373] |
| > 30 nM | > 30 nM | Cc1ncsc1-c1ccc(CNC(=O)[C@@H]2C[C@@H](O)CN2C(=O)[C@@H](NC(=O)CN2CCN(C3CCN(C(=O)c4ccc([C@H]5C[C@@H](Nc6cnn(C)c(=O)c6Br)CN(C)C5)cc4)CC3)CC2)C(C)(C)C)cc1 [Compound 408] |
| < 1 nM | 1 to 30 nM | COc1cc(C2CCC3(CC2)CCN(C(=O)c2ccc([C@H]4C[C@@H](Nc5cnn(C)c(=O)c5C)CN(C)C4)cc2)CC3)ccc1C1CCC(=O)NC1=O (some centres unmarked) [Compound 320] |
| < 1 nM | > 30 nM | Cc1c(N[C@@H]2C[C@H](c3ccc(CN4CCN(c5cccc(C6CCC(=O)NC6=O)c5)CC45CC5)cc3)CN(C)C2)cnn(C)c1=O (some centres unmarked) [Compound 349] |
| 1 to 30 nM | > 30 nM | Cc1c(N[C@@H]2C[C@H](c3ccc(C(=O)N4CCC(c5ccc6c(C7CCC(=O)NC7=O)cncc6c5)CC4)cc3)CN(C)C2)cnn(C)c1=O (some centres unmarked) [Compound 378] |
| < 1 nM | < 1 nM | Cn1ncc(N[C@@H]2C[C@H](c3ccc(C(=O)N4CCC5(CC4)CCN(c4ccc(C6CCC(=O)NC6=O)cc4)CC5)cc3)CN(CC3CC3)C2)c(Br)c1=O (stereo partly drawn) [Compound 425, 3-[4-[3-[4-[(3R,5R)-5-[(5-bromo-1-methyl-6-oxo-pyridazin-4-yl)amino]-1-(cyclopropylmethyl)-3-piperidyl]benzoyl]-3,9-diazaspiro[5.5]undecan-9-yl]phenyl]piperidine-2,6-dione] |
| < 1 nM | 1 to 30 nM | CN1C[C@H](Nc2cnn(C)c(=O)c2Cl)C[C@H](c2ccc(C(=O)N3CCC4(CC3)CCN(c3ccc(NC5CCC(=O)NC5=O)c(F)c3)CC4)cc2)C1 (some centres unmarked) [Compound 372] |
| 1 to 30 nM | > 30 nM | CN1C[C@H](Nc2cnn(C)c(=O)c2Br)C[C@H](c2ccc(CN3CCN(c4cc(C5CCC(=O)NC5=O)ccn4)CC3)cc2)C1 (some centres unmarked) [Compound 355] |
| < 1 nM | < 1 nM | CN1C[C@H](Nc2cnn(C)c(=O)c2Br)C[C@H](c2ccc(C(=O)N3CCN(c4ccc5nc(C6CCC(=O)NC6=O)ccc5c4)CC3)cc2)C1 (some centres unmarked) [Compound 384] |
| < 1 nM | > 30 nM | CN1C[C@H](Nc2cnn(C)c(=O)c2Cl)C[C@H](c2ccc(C(=O)N3CCC4(CC3)CCN(c3ccc(OC5CCC(=O)NC5=O)cn3)CC4)cc2)C1 (some centres unmarked) [Compound 367] |
| 1 to 30 nM | > 30 nM | Cc1cc(N2CC3(CCN(C(=O)c4ccc([C@H]5C[C@@H](Nc6cnn(C)c(=O)c6Cl)CN(C)C5)cc4)CC3)C2)ccc1C1CCC(=O)NC1=O (some centres unmarked) [Compound 290] |
| < 1 nM | > 30 nM | CN1C[C@H](Nc2cnn(C)c(=O)c2Cl)C[C@H](c2ccc(CN3CCN(c4ccc5cc(C6CCC(=O)NC6=O)cnc5c4)CC3)cc2)C1 (some centres unmarked) [Compound 298] |
